Measured values as given in ChEMBL document CHEMBL1127356, “(Fluorocyclopropyl)quinolones. 2. Synthesis and Stereochemical structure-activity relationships of chiral 7-(7-amino-5-azaspiro[2.4]heptan-5-yl)-1-(2-fluorocyclopropyl)quinolone antibacterial agents” (J Med Chem, 1994).
Converted amounts (≈) assume the structure as drawn.

What was measured:
Enterobacter cloacae [1] = assay: Minimum inhibitory concentration in vitro against Enterobacter cloacae (03400); assay type: functional
Escherichia coli = assay: Minimum inhibitory concentration in vitro against Escherichia coli (NIHJ); assay type: functional
Klebsiella pneumoniae = assay: Minimum inhibitory concentration in vitro against Klebsiella pneumoniae (type-2); assay type: functional
Pseudomonas aeruginosa = assay: Minimum inhibitory concentration in vitro against Pseudomonas aeruginosa (32104); assay type: functional
Proteus vulgaris = assay: Minimum inhibitory concentration in vitro against Proteus vulgaris (08601); assay type: functional
Staphylococcus aureus [2] = assay: Minimum inhibitory concentration in vitro against […] (209P); assay type: functional
Streptococcus pyogenes = assay: Minimum inhibitory concentration in vitro against Streptococcus pyogenes (G36); assay type: functional
[3] = test system: Staphylococcus epidermidis; assay: Minimum inhibitory concentration in vitro against […] (56556); assay type: functional
Serratia marcescens = assay: Minimum inhibitory concentration in vitro against […]; assay type: functional
Enterococcus faecalis = assay: Minimum inhibitory concentration in vitro against Streptococcus faecalis (ATCC 19433); assay type: functional
[4] = Maximum concentration in plasma was determined by oral administration to rats at 20 mg/kg; assay type: ADME, organism-based; design: dose 20 mg/kg, route oral; conditions: rat
Rattus norvegicus [5] = assay: Urinary recovery by oral administration to rats in conjugate form of compound at 20 mg/kg; assay type: ADME, organism-based, Urine; design: dose 20 mg/kg, route oral; conditions: in vivo
[6] = Urinary recovery by oral administration to rats in unchanged form of compound at 20 mg/kg; assay type: ADME, organism-based; design: dose 20 mg/kg, route oral; conditions: rat, urine, read-out: Urinary recovery
[7] = Urinary recovery at 20 mg/kg was determined by oral administration to rats in unchanged form of compound; assay type: ADME, organism-based; design: dose 20 mg/kg, route oral; conditions: rat, urine, read-out: Urinary recovery
Rattus norvegicus [8] = assay: Urinary recovery by oral administration to rats at 20 mg/kg in conjugate form of compound; assay type: ADME, organism-based, Urine; design: dose 20 mg/kg, route oral; conditions: in vivo
Staphylococcus aureus [9] = assay: Minimum inhibitory concentration in vitro against Staphylococcus aureus (209P); assay type: functional
[10] = test system: Staphylococcus epidermidis; assay: Minimum inhibitory concentration in vitro against Staphylococcus epidermis (56556); assay type: functional
Enterobacter cloacae [11] = assay: Minimum inhibitory concentration in vitro against […] (03400); assay type: functional
[12] = Enterobacter cloacae, read-out: MIC
[13] = Escherichia coli, read-out: MIC
[14] = Klebsiella pneumoniae, read-out: MIC
[15] = Pseudomonas aeruginosa, read-out: MIC
[16] = Proteus vulgaris, read-out: MIC
[17] = Staphylococcus aureus, read-out: MIC
[18] = Streptococcus pyogenes, read-out: MIC
[19] = Staphylococcus epidermidis, read-out: MIC
[20] = Serratia marcescens, read-out: MIC
[21] = Enterococcus faecalis, ATCC 19433, read-out: MIC

In the case of `N[C@@H]1CN(c2c(F)cc3c(=O)c(C(=O)O)cn(C4C[C@H]4F)c3c2Cl)CC12CC2` (single isomer, unassigned), the MIC (Enterobacter cloacae [1]; [12]) was 0.013 µg/mL (≈ 0.0317 µM), the MIC (Escherichia coli; [13]) was 0.013 µg/mL (≈ 0.0317 µM) and the MIC (Klebsiella pneumoniae; [14]) was 0.025 µg/mL (≈ 0.061 µM). The MIC (Pseudomonas aeruginosa; [15]) was 0.2 µg/mL (≈ 0.488 µM), the MIC (Proteus vulgaris; [16]) was 0.013 µg/mL (≈ 0.0317 µM) and the MIC (Staphylococcus aureus [2]; [17]) was 0.025 µg/mL (≈ 0.061 µM). It also gave an MIC (Streptococcus pyogenes; [18]) of 0.2 µg/mL (≈ 0.488 µM), an MIC [3, 19] of 0.05 µg/mL (≈ 0.122 µM) and an MIC (Serratia marcescens; [20]) of 0.05 µg/mL (≈ 0.122 µM). For the same molecule, the MIC (Enterococcus faecalis; [21]) was 0.2 µg/mL (≈ 0.488 µM).

In the case of `N[C@H]1CN(c2c(F)cc3c(=O)c(C(=O)O)cn(C4CC4)c3c2Cl)CC12CC2`, the Cmax [4] was 3400 ng/mL, the Urinary recovery (Rattus norvegicus [5]) was 7% and the dose excreted [6] was 7%. For the same molecule, the MIC (Enterobacter cloacae [1]; [12]) was 0.006 µg/mL (≈ 0.0153 µM), the MIC (Escherichia coli; [13]) was less than 0.006 µg/mL and the MIC (Klebsiella pneumoniae; [14]) was 0.025 µg/mL (≈ 0.0638 µM). It also gave an MIC (Pseudomonas aeruginosa; [15]) of 0.05 µg/mL (≈ 0.128 µM), an MIC (Proteus vulgaris; [16]) of 0.006 µg/mL (≈ 0.0153 µM) and an MIC (Staphylococcus aureus [2]; [17]) of 0.013 µg/mL (≈ 0.0332 µM). It also gave an MIC (Streptococcus pyogenes; [18]) of 0.1 µg/mL (≈ 0.255 µM), an MIC [3, 19] of 0.025 µg/mL (≈ 0.0638 µM) and an MIC (Serratia marcescens; [20]) of 0.025 µg/mL (≈ 0.0638 µM). For the same molecule, the MIC (Enterococcus faecalis; [21]) was 0.1 µg/mL (≈ 0.255 µM).

Molecule `N[C@H]1CN(c2c(F)cc3c(=O)c(C(=O)O)cn(C4CC4F)c3c2Cl)CC12CC2` (stereo in doubt; 39) has an MIC (Enterobacter cloacae [1]) of 0.1 µg/mL (≈ 0.244 µM), an MIC (Escherichia coli) of 0.05 µg/mL (≈ 0.122 µM) and an MIC (Klebsiella pneumoniae) of 0.39 µg/mL (≈ 0.952 µM). For the same molecule, the MIC (Pseudomonas aeruginosa) was 1.56 µg/mL (≈ 3.81 µM), the MIC (Proteus vulgaris) was 0.1 µg/mL (≈ 0.244 µM) and the MIC (Staphylococcus aureus [2]) was 0.78 µg/mL (≈ 1.9 µM). The MIC [3] was 0.78 µg/mL (≈ 1.9 µM), the MIC (Serratia marcescens) was 0.39 µg/mL (≈ 0.952 µM) and the MIC (Enterococcus faecalis) was 6.25 µg/mL (≈ 15.3 µM).

Molecule `N[C@H]1CN(c2c(F)cc3c(=O)c(C(=O)O)cn(C4CC4F)c3c2Cl)CC12CC2` (stereo in doubt; 40) has an MIC (Enterobacter cloacae [1]) of 0.78 µg/mL (≈ 1.9 µM), an MIC (Escherichia coli) of 0.39 µg/mL (≈ 0.952 µM) and an MIC (Klebsiella pneumoniae) of 1.56 µg/mL (≈ 3.81 µM). The MIC (Pseudomonas aeruginosa) was 6.25 µg/mL (≈ 15.3 µM), the MIC (Proteus vulgaris) was 0.39 µg/mL (≈ 0.952 µM) and the MIC (Staphylococcus aureus [2]) was 3.13 µg/mL (≈ 7.64 µM). The MIC (Streptococcus pyogenes; [18]) was greater than 12.5 µg/mL, the MIC [3] was 3.13 µg/mL (≈ 7.64 µM) and the MIC (Serratia marcescens; [20]) was 0.78 µg/mL (≈ 1.9 µM). It also gave an MIC (Enterococcus faecalis; [21]) greater than 12.5 µg/mL.

With `N[C@@H]1CN(c2c(F)cc3c(=O)c(C(=O)O)cn(C4CC4F)c3c2Cl)CC12CC2` (stereo in doubt; 37) the MIC (Enterobacter cloacae [1]) was 0.013 µg/mL (≈ 0.0317 µM), the MIC (Escherichia coli) was 0.006 µg/mL (≈ 0.0146 µM) and the MIC (Klebsiella pneumoniae) was 0.05 µg/mL (≈ 0.122 µM). For the same molecule, the MIC (Pseudomonas aeruginosa) was 0.39 µg/mL (≈ 0.952 µM), the MIC (Proteus vulgaris) was 0.025 µg/mL (≈ 0.061 µM) and the MIC (Staphylococcus aureus [2]) was 0.1 µg/mL (≈ 0.244 µM). For the same molecule, the MIC (Streptococcus pyogenes) was 0.39 µg/mL (≈ 0.952 µM), the MIC [3] was 0.1 µg/mL (≈ 0.244 µM) and the MIC (Serratia marcescens) was 0.1 µg/mL (≈ 0.244 µM). For the same molecule, the MIC (Enterococcus faecalis) was 0.78 µg/mL (≈ 1.9 µM).

With `NC1CCN(c2c(F)cc3c(=O)c(C(=O)O)cn([C@@H]4C[C@@H]4F)c3c2Cl)C1` (single isomer, unassigned) the Cmax [4] was 2000 ng/mL, the dose excreted [7] was 12% and the Urinary recovery (Rattus norvegicus [8]) was 4%. The MIC (Enterobacter cloacae [1]; [12]) was 0.006 µg/mL (≈ 0.0156 µM), the MIC (Escherichia coli; [13]) was 0.006 µg/mL (≈ 0.0156 µM) and the MIC (Klebsiella pneumoniae; [14]) was 0.05 µg/mL (≈ 0.13 µM). For the same molecule, the MIC (Pseudomonas aeruginosa; [15]) was 0.05 µg/mL (≈ 0.13 µM), the MIC (Proteus vulgaris; [16]) was 0.006 µg/mL (≈ 0.0156 µM) and the MIC (Staphylococcus aureus [9]) was 0.013 µg/mL (≈ 0.0339 µM). For the same molecule, the MIC (Streptococcus pyogenes; [18]) was 0.1 µg/mL (≈ 0.261 µM), the MIC [10] was 0.05 µg/mL (≈ 0.13 µM) and the MIC (Serratia marcescens; [20]) was 0.025 µg/mL (≈ 0.0651 µM). The MIC (Enterococcus faecalis; [21]) was 0.2 µg/mL (≈ 0.521 µM).

Molecule `N[C@@H]1CCN(c2c(F)cc3c(=O)c(C(=O)O)cn(C4CC4)c3c2Cl)C1` has a Cmax [4] of 3900 ng/mL, a Urinary recovery (Rattus norvegicus [5]) of 5% and a dose excreted [6] of 24%. For the same molecule, the MIC (Enterobacter cloacae [11]) was 0.006 µg/mL (≈ 0.0164 µM), the MIC (Escherichia coli; [13]) was less than 0.006 µg/mL and the MIC (Klebsiella pneumoniae; [14]) was 0.025 µg/mL (≈ 0.0683 µM). It also gave an MIC (Pseudomonas aeruginosa; [15]) of 0.05 µg/mL (≈ 0.137 µM), an MIC (Proteus vulgaris; [16]) of 0.006 µg/mL (≈ 0.0164 µM) and an MIC (Staphylococcus aureus [2]; [17]) of 0.025 µg/mL (≈ 0.0683 µM). It also gave an MIC (Streptococcus pyogenes; [18]) of 0.1 µg/mL (≈ 0.273 µM), an MIC [3, 19] of 0.05 µg/mL (≈ 0.137 µM) and an MIC (Serratia marcescens; [20]) of 0.025 µg/mL (≈ 0.0683 µM). The MIC (Enterococcus faecalis; [21]) was 0.1 µg/mL (≈ 0.273 µM).
